According to publication PMC3542062, “A phenyl-thiadiazolylidene-amine derivative ejects zinc from retroviral nucleocapsid zinc fingers and inactivates HIV virions” (Retrovirology, 2012):
Each block holds one compound with its values, some of them ahead of it.

How the values were obtained:
NL4.3/AMD3100R = test: microbe, parasite or virus in culture; type: cell-based, HIV-1; conditions: NL4.3/AMD3100R; EC50 for NL4.3 wild-type as 1
HIV-1 IIIB [1] = test: MT-4/MTT-assay, protection against virus-induced cytopathic effect; type: cell-based; conditions: MT-4 cells, MTT, 5 days after infection
HIV-2 ROD [2] = test: as above; type: cell-based; conditions: MT-4 cells, MTT, 5 days after infection
SIV Mac251 = test: as above; type: cell-based; conditions: MT-4 cells, MTT, 5 days after infection
MT-4 cells = test: Cytotoxicity in mock-infected MT-4 cells (MTT); type: cell-based
HIV-1 IIIB [3] = test: Anti-HIV activity in CEM cells (cytopathogenicity); type: cell-based
HIV-2 ROD [4] = test: Anti-HIV activity in CEM cells (cytopathogenicity); type: cell-based
[5] = system: human T-lymphocyte (CEM) cells; test: Cytostatic activity, CEM cell proliferation; type: cell-based
[6] = system: HIV-1 IIIB chronically-infected HuT-78 cells; test: Gag processing in virions from HIV-1 IIIB chronically-infected HuT-78 cells (western blot); type: cell-based; conditions: HuT-78/IIIB cells treated 43 hours; WDO-217 50, 25 μM; ritonavir 2.7 μM; SRR-SB3 75, 15 μM
Protocol: Recently, it has been shown that this new mechanism involves acetylation of the NCp7 region of Gag, thereby blocking Gag processing.
HIV-1 IIIB virions from persistently infected HuT-78 cells treated with different concentrations of compound were analysed by gel electrophoresis and immunoblotted with antibody against capsid.
Chronically-infected HIV-1 IIIB HuT-78 cells (HuT-78/IIIB) were washed four times with PBS to remove all free virions before treatment and 2 × 10^5 cells were resuspended in 1 ml compound-containing medium for 43 hours at 37°C. Then, virions were prepared from clarified supernatants (10 min at 300 g) by centrifugation at 36670 g for 2 hours at 4°C. Protein from lysed virions were separated by SDS-PAGE on a NuPage® Novex 4-12% Bis-Tris gel (Invitrogen) and transferred on a hydrophobic polyvinylidene difluoride (PVDF) membrane (Amersham Hybond™-P). The blot was blocked overnight at 4°C by 5% dry milk powder in Western blot wash solution (WBWS; PBS + 0.5% Tween 20), washed three times for 5 minutes with WBWS and incubated with a mouse anti-HIV-1 p24 antibody (1:5000) from Abcam. The blot was then washed three times for 5 minutes with WBWS and incubated for 1 h with a goat anti-mouse IgG-HRP secondary antibody (1:2500) from Santa Cruz Biotechnology. […]

HIV-1 virus particles [7] = test: Virion-associated p24 of pre-treated, compound-cleared virus (ELISA); conditions: compound-cleared HIV-1 virus stock
HIV-1 virus particles [8] = test: Virion-associated genomic RNA of pre-treated virus (RT-qPCR, Northern blot); conditions: compound-cleared HIV-1 virus stock, RT-qPCR or Northern blot
HIV-1 IIIB [9] = test: Virucidal assay: virus pre-incubated with compound, diluted, titrated on MT-4 cells; conditions: virus incubated 1 h 37°C with 0.5%; no drug 1 × 10^6
HIV-2 ROD [10] = test: as above; conditions: virus incubated 1 h 37°C with 0.5%; no drug 5.4 × 10^6

Compound: c1cc(CN2CCCNCCNCCCNCC2)ccc1CN1CCCNCCNCCCNCC1 [AMD3100, reference compound]
Fold resistance of mutant strain towards the respective inhibitor (NL4.3/AMD3100R): (>100)

EC50 (HIV-1 IIIB [1]): 7 ± 1 nM
EC50 (HIV-2 ROD [2]): 5 ± 0.8 nM
EC50 (SIV Mac251): 16 ± 7 nM
EC50 (HIV-1 IIIB [3]): 58 ± 30 nM
EC50 (HIV-2 ROD [4]): 55 ± 20 nM
Compound: Cc1cn([C@H]2C[C@H](N=[N+]=[N-])[C@@H](CO)O2)c(=O)[nH]c1=O [AZT, reference compound]
CC50 (MT-4 cells): > 35000 nM
CC50 [5]: > 125000 nM

Compound: CC(C)c1nc(CN(C)C(=O)N[C@H](C(=O)N[C@@H](Cc2ccccc2)C[C@H](O)[C@H](Cc2ccccc2)NC(=O)OCc2cncs2)C(C)C)cs1 [ritonavir, reference compound]
accumulation of unprocessed Gag polyprotein in progeny virus [6]: did effectively increase

Compound: Triton X-100 [reference compound]
virus-associated p24 core protein after treatment (HIV-1 virus particles [7]): no p24 core protein nor viral genomic RNA could be detected
viral genomic RNA content after treatment (HIV-1 virus particles [8]): no p24 core protein nor viral genomic RNA could be detected
CCID50/ml HIV-1 IIIB (HIV-1 IIIB [9]): 0 CCID50/ml
CCID50/ml HIV-2 ROD (HIV-2 ROD [10]): 0 CCID50/ml
